Results reported in article PMC2751816, “Functional, Non-Clonal IgM^a-Restricted B Cell Receptor Interactions with the HIV-1 Envelope gp41 Membrane Proximal External Region” (PLoS ONE, 2009).
pKd: −log10 of the molar value.

Legend:
[1] = tested on: BALB/c B cells (gp41 MPER tetramer binding); experiment: Cold inhibition of APC-labeled gp41 MPER tetramer binding by unlabeled tetramers; assay type: cell-based, mouse (BALB/c); settings: unlabeled competitor tetramer pre-incubated; Fig. 4A,B; average of three experiments (4B)
Description: FACS staining of single cell suspensions (≥2×10^6) was conducted using pre-mixed combinations of fluorochrome-labeled Abs and APC-conjugated B cell tetramers at empirically-determined optimal concentrations. All Abs were from BD unless otherwise stated. Primary antibodies used were: PerCP anti-B220, FITC anti-IgD, FITC, PE or PE-Cy7 anti-IgM, PE anti-CD5, FITC anti-CD11b, PE-Cy7 anti-CD19, FITC anti-CD21, PE-Cy7 anti-CD23 (eBiosciences), and PE-Cy7 anti-CD93 (eBiosciences). Other reagents included biotinylated Abs against dump channel markers: Thy1 (Abcam), F4/80 (Abcam), CD11c, Gr-1, TER-119, and NK-1.1, secondary staining SA-Texas Red conjugate; v-amine live/dead violet dye (Molecular Probes), and Fc block (anti-CD16/32).
Staining was conducted at 4°C in several sequential steps in FACS staining buffer (1X PBS with 2% FCS, 0.1% NaN3), washing twice between steps. Cells were first incubated with v-amine live/dead dye for 15 min, then stained with APC-labeled tetramers for 30 min (and in some experiments, cold tetramer was incubated at 10 fold molar excess for 1 h, prior to staining with APC-labeled tetramers). Cells were then stained with Fc block, followed by incubation with combinations of primary Abs, and secondary staining with SA-Texas Red, each for 30 min. Data (≥2.5×10^5 events/sample) were acquired using an LSRII flow cytometer and Cell Quest software (BD Immunocytometry systems). FACS Analysis was performed using FlowJo software (Tree Star). For analysis, cells were gated in the following order: single cells were gated based on fsc height vs. fsc area+ssc height vs. ssc profiles, lymphocytes were gated on fsc and ssc profile, residual dead cells were excluded by negative gating with v-amine live/dead dye, and irrelevant non-B cells were excluded by negative gating with dump markers.

[2] = molecular target: gp41 MPER peptide (nominal 2F5 epitope of the HIV-1 gp41 membrane proximal external region), N-biotinylated (HIV-1); experiment: SPR; monomeric or F(ab)2 IgM fragments injected over biotinylated peptides anchored to a SA-coated sensor chip; BIAcore 3000, BIAevaluation 4.1

Substance	inhibition of APC-labeled gp41 MPER tetramer binding (in words) [1]	pKd [2]
DWEYSLWLSN [dsDNA tetramers, double-stranded DNA (dsDNA) mimic tetramer made from the R4A peptide […], reference compound]	minimal competition with gp41 MPER binding	–
monomeric IgM^a fragment of the purified mouse TNP-KLH-specific IgM^a mAb, BD clone G155-228 (antibody)	–	6.56
